Earlier results in patent publication US20090137633A1, “Stable pharmaceutical composition of rabeprazole” (priority 2003, published 2009).
Counter-ions that a name gives are not always drawn.

Experiments:
[1] = molecular target: T1, gastric H^+ K^+ ATPase enzyme system (proton pump) (Homo sapiens, UniProt P20648); conditions: in vivo
T1 construct: at the secretory surface of the gastric parietal cell; host or cells: gastric parietal cell (in vivo)
T1 sequence (P20648 whole entry): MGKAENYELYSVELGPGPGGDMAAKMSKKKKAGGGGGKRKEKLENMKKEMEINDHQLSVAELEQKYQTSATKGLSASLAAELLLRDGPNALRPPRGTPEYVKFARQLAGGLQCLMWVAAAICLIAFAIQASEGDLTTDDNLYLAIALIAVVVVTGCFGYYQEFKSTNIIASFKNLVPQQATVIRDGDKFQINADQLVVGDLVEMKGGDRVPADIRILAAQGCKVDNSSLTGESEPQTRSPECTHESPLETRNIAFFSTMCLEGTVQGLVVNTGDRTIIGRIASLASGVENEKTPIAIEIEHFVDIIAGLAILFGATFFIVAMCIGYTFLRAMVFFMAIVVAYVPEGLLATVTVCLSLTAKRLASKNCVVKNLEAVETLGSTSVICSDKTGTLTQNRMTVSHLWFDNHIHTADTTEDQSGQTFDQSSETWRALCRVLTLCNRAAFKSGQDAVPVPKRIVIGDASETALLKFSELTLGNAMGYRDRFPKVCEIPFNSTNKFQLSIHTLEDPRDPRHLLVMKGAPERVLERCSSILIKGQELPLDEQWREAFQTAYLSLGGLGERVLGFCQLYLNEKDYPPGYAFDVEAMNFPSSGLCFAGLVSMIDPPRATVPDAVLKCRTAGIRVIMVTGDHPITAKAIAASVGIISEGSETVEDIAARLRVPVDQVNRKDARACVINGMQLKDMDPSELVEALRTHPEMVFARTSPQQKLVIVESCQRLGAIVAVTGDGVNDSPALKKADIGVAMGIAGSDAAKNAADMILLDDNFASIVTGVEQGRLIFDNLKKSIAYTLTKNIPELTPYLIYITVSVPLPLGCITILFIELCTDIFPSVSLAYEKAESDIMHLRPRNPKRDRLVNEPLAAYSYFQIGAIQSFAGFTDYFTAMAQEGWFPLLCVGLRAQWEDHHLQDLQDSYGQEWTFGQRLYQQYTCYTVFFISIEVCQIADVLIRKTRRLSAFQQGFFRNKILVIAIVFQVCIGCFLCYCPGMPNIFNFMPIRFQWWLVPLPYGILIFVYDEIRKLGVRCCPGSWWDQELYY
T1 sequence (P51164 whole entry partner): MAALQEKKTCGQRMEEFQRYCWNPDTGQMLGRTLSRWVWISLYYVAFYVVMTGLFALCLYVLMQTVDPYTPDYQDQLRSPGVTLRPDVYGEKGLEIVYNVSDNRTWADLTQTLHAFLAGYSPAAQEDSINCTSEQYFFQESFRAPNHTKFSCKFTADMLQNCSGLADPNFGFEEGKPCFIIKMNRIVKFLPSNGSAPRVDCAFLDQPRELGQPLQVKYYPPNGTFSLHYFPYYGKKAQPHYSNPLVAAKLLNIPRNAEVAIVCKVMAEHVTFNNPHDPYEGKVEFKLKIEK

In the case of `COCCCOc1ccnc(C[S+]([O-])c2nc3ccccc3[nH]2)c1C` (centres unmarked) [rabeprazole, 2-{[[4-(3-methoxypropoxy)-3-methyl]-2-pyridinyl]sulfinyl}-1H-benzimidazole sodium salt], the oral bioavalability is listed as “about 50%” and the “effect on intragastric pH in relation to cytochrome P450 2C19 genotype” value [1] is listed as “unaffected”.
